Test results: the OPERA property sets (Mansouri et al. 2018)

details: not given

SMILES | boiling point [°C] | melting point [°C] | log10 vapour pressure (mmHg) | log10 Koc (L/kg) | ready biodegradability | log10 Henry constant (atm·m³/mol) | log10 Koa
CC[C@H]1CC[C@H](C)C1 | 121 | -108 | – | – | – | – | –
CCOCCOCCOCC | 188 | -45 | -0.284 | – | – | – | –
C=C1CCO[C@]2([C@H](O)[C@@](C)(O)CO)NC(=O)[C@@]1(O)NC2=O | – | 188 | – | – | – | – | –
CCOC(=O)C(Br)(Br)Br | 225 | – | – | – | – | – | –
O=C(O)c1ccc(F)c(F)c1F | – | 141 | – | – | – | – | –
COS(=O)(=O)OC | – | -27 | -0.169 | – | – | – | –
CS(=O)(=O)NC(=O)c1cc(Oc2ccc(C(F)(F)F)cc2Cl)ccc1[N+](=O)[O-] | – | 220 | – | 1.78 | – | – | –
OCCCCCCCCCCCl | – | 12.5 | – | – | – | – | –
N#CC(O)c1ccccc1 (centres undefined) | – | -10 | – | – | – | – | –
COC(=O)CC#N | 200 | -22.5 | -0.86 | – | – | – | –
S=C(SN1CCOCC1)N1CCOCC1 | – | 139 | – | – | – | – | –
CCC(C)(C)I | 124 | – | – | – | – | – | –
NC(=O)N(CCO)/N=C/c1ccc([N+](=O)[O-])o1 | – | 214 | – | – | – | – | –
CC(C)CN(CCO)CC(C)C | 214 | – | – | – | – | – | –
COCC(=O)c1ccccc1 | 245 | 8 | – | – | – | – | –
O=C(O)[C@@H](S)[C@@H](S)C(=O)O | – | 193 | – | – | – | – | –
CCOC(=O)C(C(=O)OCC)C(=O)OCC | 253 | 29 | – | – | – | – | –
CCNc1nc(Cl)nc(NCC)n1 | – | 226 | -7.66 | 2.1 | not readily biodegradable | – | –
CC1=CC[C@@]23CC1C(C)(C)[C@@H]2CC[C@H]3C | – | 262 | – | – | – | – | –

SMILES | boiling point [°C] | melting point [°C] | log10 vapour pressure (mmHg) | log10 Koc (L/kg) | ready biodegradability | log10 Henry constant (atm·m³/mol) | log10 Koa
OCCN1CCN(CCO)CC1 | – | 135 | – | – | – | – | –
Cc1ccc(C)c(O)c1 | 211 | 74.8 | -0.807 | – | not readily biodegradable | -5.95 | –
c1cc2c3c(c1)ccc1cccc(c13)C2 | 353 | 114 | – | – | – | – | –
S=C=NC1CCCCC1 | 220 | – | – | – | – | – | –
Clc1ccc(-c2ccc(Cl)c(Cl)c2Cl)cc1Cl | – | – | -5.18 | – | – | – | 10
CC1=C(C(=O)O)CCC1(C)C | 256 | 135 | – | – | – | – | –
CC(C)(C)c1cc(C=O)cc(C(C)(C)C)c1O | – | 186 | – | – | – | – | –
CCCCCCCCCCCCOC(C)=O | 265 | 1.3 | – | – | – | – | –
Cc1cc(O)ccc1O | 272 | 128 | – | – | – | – | –
CC1C2Cc3ccc(O)cc3C1(C)CCN2CCc1ccccc1 (centres undefined) | – | 181 | – | – | – | – | –
ICCCCI | – | 5.8 | – | – | – | – | –
CCC(c1ccccc1)c1ccccc1 | 282 | 13.3 | – | – | – | – | –
NNC(N)=O | – | 96 | – | – | – | – | –
COc1ccc(C(=O)Cl)cc1 | 262 | 24.5 | – | – | – | – | –
CCCCCCOC(=O)CC | 190 | -57.5 | – | – | – | – | –
C=CC(=O)OCCC | – | – | 1.16 | – | – | – | –
O=C(Oc1cccc(O)c1)c1ccccc1 | – | 134 | – | – | readily biodegradable | – | –
C=CCc1ccc(OC=O)c(OC)c1 | 270 | – | – | – | – | – | –
c1ccc(N(CC2CO2)CC2CO2)cc1 (centres undefined) | – | – | – | – | not readily biodegradable | – | –

SMILES | boiling point [°C] | melting point [°C] | log10 vapour pressure (mmHg) | log10 Koc (L/kg) | ready biodegradability | log10 Henry constant (atm·m³/mol) | log10 Koa
Cc1ccccc1N=C=O | 185 | – | – | – | – | – | –
CCCCCCC1CCCC1 | 203 | -73 | – | – | – | – | –
CN(C)C(=O)Nc1ccc(Oc2ccc(Cl)cc2)cc1 | – | 151 | -8.41 | 3.55 | not readily biodegradable | – | –
CC(C)[C@H]1CC[C@H](C)C[C@@H]1OCC(=O)O | – | 54 | – | – | – | – | –
FC1=C(F)C(F)(F)C(F)(F)C(F)(F)C1(F)F | 52 | – | – | – | – | – | –
c1ccncc1 | 115 | -41.6 | 1.32 | 1.6 | readily biodegradable | -4.96 | –
CCCCNC(N)=O | – | 97 | – | – | – | – | –
O=[N+]([O-])c1ccc(CCO)cc1 | – | 63 | – | – | – | – | –
COc1cc(C)nc(-n2nc(C)cc2OC)n1 | – | 91 | – | – | – | – | –
CCCC(C)CC(C)CC (centres undefined) | 159 | – | – | – | – | – | –
O=C(OC[C@H]1O[C@@H](Oc2ccccc2CO)[C@H](O)[C@@H](O)[C@@H]1O)c1ccccc1 | – | 180 | – | – | – | – | –
C=CCNC(=O)NCC=C | – | 91.5 | – | – | – | – | –
CC(=O)c1ccc(Cl)s1 | – | 52 | – | – | – | – | –
O=C1CCO1 | 162 | -33.4 | – | – | readily biodegradable | – | –
CCOC(=O)C1CCC1 | 159 | – | – | – | – | – | –
CC(O)C(C)O (centres undefined) | – | – | – | – | readily biodegradable | – | –
CN(C)c1ccc(Cc2ccc(N(C)C)cc2)cc1 | 390 | 91.5 | – | 3.96 | not readily biodegradable | – | –
CN1CC[C@]23c4c5ccc(OCCN6CCOCC6)c4O[C@H]2[C@@H](O)C=C[C@H]3[C@H]1C5 | – | 91 | – | – | – | – | –

same assay, conditions: fish

SMILES | log10 BCF | log10 biotransformation half-life (days)
ClC1(Cl)C2(Cl)C3(Cl)C4(Cl)C(Cl)(Cl)C5(Cl)C3(Cl)C1(Cl)C5(Cl)C24Cl (centres undefined) | 4.31 | 1.8
COP(=S)(OC)Oc1ccc(S(C)(=O)=O)c(C)c1 | 0.51 | -0.03
Brc1ccc(Oc2c(Br)cccc2Br)c(Br)c1 | 5.88 | –
CCNc1nc(Cl)nc(NCC)n1 | 0.56 | -0.94
Clc1ccc(-c2ccc(Cl)c(Cl)c2Cl)cc1Cl | – | 2.06
CN(C)c1ccc(Cc2ccc(N(C)C)cc2)cc1 | – | -0.04
